Measured values from US20250049758A1, “Danegaptide Formulation for Application in the Eye” (Breye Therapeutics APS, priority 2021, published 2025).
“Also recorded” adds a separate entry of the source. Structures can show the parent of a compound that is named as a salt.

Key:
Water solubility = type: physicochemical
From the text: Danegaptide as a HCL salt is water-soluble. To investigate the viability of this drug, a melt extrusion formulation strategy was chosen, and six different formulations based on various viable excipients feasible for the melt extrusion process were manufactured with approximately 20% drug load.

retinal vascular cells = conditions: cited from earlier work
Gap-Junction coupling = experiment: In vitro and in vivo pre-clinical studies, Gap-Junction coupling under stressed conditions
Toxicology program = type: in vivo; conditions: high concentration levels administered locally in selected tissues or systemically
From the text: However, the protective effects of danegaptide from stress-induced cell-cell uncoupling or cellular loss may be diminished or lost at higher concentrations of danegaptide.

[1] = test system: retinal endothelial cell coupling; conditions: in vitro; cited from earlier work
[2] = Dissolution testing of prototype formulations in 0.9% NaCl at 37° C., HPLC; type: physicochemical; conditions: prolonged storage of the dosage form at 37° C.
Experimental: Described below is the dissolution behavior of Danegaptide when formulated in 6 different melt extrusion formulations. The formulations were manufactured with a drug load of about 20%. The formulations were exposed to physiological salt solutions at 37° C. and stored for several months. The media was changed regularly and analyzed for content of Danegaptide.
The dissolution process was investigated for each of the 6 manufactured prototypes by inserting the prototypes into a 0.9% NaCl solution and test the dissolution of Danegaptide over time by HPLC. The experiment was conducted over 170 days.
Fifteen dose units of each prototype was weighed and were wrapped into a permeable filter bag consisting of empty triangular tea bags made of polymeric material, with a mesh size of less than 0.5 μm. The bags were each inserted into glass vials and 10 ml 0.9% NaCl solution media were added to each vial. The vials were placed in a water bath at 37° C. At regular intervals the media was drained and 10 ml new media was added and the vials were returned to the water bath. […] One day delivery periods were also tested several times during the dissolution period. […] In addition, an informative impurity profile was recorded. In relation to this, the pH value of each collected media sample was determined. […]
The Danegaptide content was quantified to a Danegaptide reference substance. […]

vascular leakage = conditions: cited from earlier work

| SMILES | Water solubility (Water solubility) | Cell-cell GJ uncoupling (retinal vascular cells; high glucose condition) | High glucose-induced apoptosis (retinal vascular cells; retinal vascular cells) | Optimal concentration in the target tissue, such as the retina, to maintain Gap-Junction coupling (Gap-Junction coupling) | Toxicity (Toxicology program) | Concentration giving optimal protection from high-glucose induced cell-cell uncoupling [1] | Degradation of Danegaptide during the dissolution period (HPLC impurity profile) [2] | Vascular leakage (vascular leakage) |
| --- | --- | --- | --- | --- | --- | --- | --- | --- |
| NCC(=O)N1C[C@H](NC(=O)c2ccccc2)C[C@H]1C(=O)O [Danegaptide as a HCL salt] | water-soluble | – | – | – | – | – | – | – |
| NCC(=O)N1C[C@H](NC(=O)c2ccccc2)C[C@H]1C(=O)O [Danegaptide, (2S,4R)-1-(2-aminoacetyl)-4-benzoylamino-pyrrolidine-2-carboxylic acid] | – | prevent cell-cell GJ uncoupling | prevent high glucose-induced apoptosis | 50 to 100 nM | no toxicity concerns | 50 to 100 nM | probably only happened to a smaller extent; also recorded: did not indicate a significant degradation pattern | reduce vascular leakage |
